Here are results for 27 compounds from US9328099B2, “Cyanomethylpyrazole carboxamides as janus kinase inhibitors” (Merck Sharp & Dohme Corp., priority 2011, dated 2016).

Molecules are shown by their SMILES.

Usually IC50 stands for the concentration that inhibits the measured activity by half.

The target in one assay is JAK1 (Homo sapiens (Human), UniProt P23458). Description: Jak Biochemical HTRF Assay, JAK1. The note with it: HTRF biochemical assay, GST-tagged catalytic domain; top concentration tested […]; read-out: JAK1 IC50. From the text:
(§1) Jak Biochemical HTRF Assay Protocol
(§2) Subsequent reagent additions employed an Agilent Bravo.

In a further assay the target is JAK2 (Homo sapiens (Human), UniProt O60674). Briefly: Jak Biochemical HTRF Assay, JAK2. The settings on record: HTRF biochemical assay, GST-tagged catalytic domain; top concentration tested […].
JAK2, sequence (O60674 849-1124): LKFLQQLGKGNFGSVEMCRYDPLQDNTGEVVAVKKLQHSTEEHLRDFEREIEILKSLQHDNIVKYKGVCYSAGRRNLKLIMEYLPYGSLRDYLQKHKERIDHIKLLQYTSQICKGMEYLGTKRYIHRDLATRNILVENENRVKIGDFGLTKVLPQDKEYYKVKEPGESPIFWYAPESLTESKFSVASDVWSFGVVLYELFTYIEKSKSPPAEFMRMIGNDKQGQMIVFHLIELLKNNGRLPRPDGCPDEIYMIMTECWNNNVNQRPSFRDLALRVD
From the text: as §1, §2
(In general: In TR-FRET formats the signal depends on donor and acceptor labels being close together.)

JAK1, sequence (P23458 875-1153): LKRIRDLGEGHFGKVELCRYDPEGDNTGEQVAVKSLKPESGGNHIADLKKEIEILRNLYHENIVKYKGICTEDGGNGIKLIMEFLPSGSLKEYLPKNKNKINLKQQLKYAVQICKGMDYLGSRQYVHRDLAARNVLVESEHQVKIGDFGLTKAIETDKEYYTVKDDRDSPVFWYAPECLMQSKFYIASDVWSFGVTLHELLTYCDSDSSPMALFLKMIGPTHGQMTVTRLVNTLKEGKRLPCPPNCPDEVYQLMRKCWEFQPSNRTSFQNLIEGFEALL

In the case of `CC(C)(C)OC(=O)N1CCC(CC#N)(n2cc(C(N)=O)c(Nc3ccc(C(C)(C)O)cc3)n2)CC1` [Example 9-8, tert-butyl 4-(4-carbamoyl-3-(4-(2-hydroxypropan-2-yl)phenylamino)-1H-pyrazol-1-yl)-4-(cyanomethyl)piperidine-1-carboxylate], the IC50 at JAK1 worked out at 0.3 nM; against JAK2, 3 nM.

As for `N#CCC1(n2cc(C(N)=O)c(Nc3ccccc3)n2)CCN(C(=O)c2cccs2)CC1` [Example 34-14, 1-[4-(cyanomethyl)-1-(thiophen-2-ylcarbonyl)piperidin-4-yl]-3-(phenylamino)-1H-pyrazole-4-carboxamide], the IC50 was determined as 0.3 nM at JAK1 and 8 nM at JAK2.

In the case of `COc1ccc(C(=O)N2CCC(CC#N)(n3cc(C(N)=O)c(Nc4ccccc4)n3)CC2)cc1OC` [Example 34-27, 1-{4-(cyanomethyl)-l-[(3,4-dimethoxyphenyl)carbonyl]piperidin-4-yl}-3-(phenylamino)-1H-pyrazole-4-carboxamide], the 50% inhibitory concentration (IC50) on JAK1 was found to be 32 nM; against JAK2 it was 448 nM.

`Cc1cc(Nc2nn(C3(CC#N)CCN(C(=O)OC(C)(C)C)CC3)cc2C(N)=O)ccn1` [Example 9-17, tent-butyl 4-{4-carbamoyl-3-[(2-methylpyridin-4-yl)amino]-1H-pyrazol-1-yl}-4-(cyanomethyl)piperidine-1-carboxylate]: the figures for the IC50 at JAK1 and on JAK2 were 15 nM and 133 nM, respectively.

For `N#CCC1(n2cc(C(N)=O)c(Nc3ccnc(F)c3)n2)CCC(NCc2ccc(C#N)cc2)CC1` (stereo not drawn) [Example 41-6, Cis or trans 1-{4-[(4-cyanobenzyl)amino]-1-(cyanomethyl)cyclohexyl}-3-[(2-fluoropyridin-4-yl)amino]-1H-pyrazole-4-carboxamide], the IC50 on JAK1 was found to be 23 nM; at JAK2, 851 nM.

Take `N#CCC1(n2cc(C(N)=O)c(Nc3ccccc3)n2)CN(C(=O)OC2CCCC2)C1` [Example 30-52, cyclopentyl 3-[4-carbamoyl-3-(phenylamino)-1H-pyrazol-1-yl]-3-(cyanomethyl)azetidine-1-carboxylate]: the half-inhibitory concentration (IC50) on JAK1 turned out to be 3 nM; against JAK2, 76 nM.

With `N#CCC1(n2cc(C(N)=O)c(Nc3ccccc3)n2)CN(C(=O)OCCF)C1` [Example 30-50, 2-fluoroethyl 3-[4-carbamoyl-3-(phenylamino)-1H-pyrazol-1-yl]-3-(cyanomethyl)azetidine-1-carboxylate], the IC50 at JAK1 came to 2 nM; against JAK2 it was 27 nM.

Regarding `N#CCC1(n2cc(C(N)=O)c(Nc3ccc(F)cc3)n2)CCN(Cc2ccnc3[nH]ccc23)CC1` [Example 22-53, 1-[4-(cyanomethyl)-1-(1H-pyrrolo[2,3-b]pyridin-4-ylmethyl)piperidin-4-yl]-3-[(4-fluorophenyl)amino]-1H-pyrazole-4-carboxamide], the IC50 is 4 nM at JAK1 and 87 nM against JAK2.

Consider `CC(=O)c1cccc(NC(=O)N2CC(CC#N)(n3cc(C(N)=O)c(Nc4ccccc4)n3)C2)c1` [Example 38-32, 1-{1-[(3-acetylphenyl)carbamoyl]-3-(cyanomethyl)azetidin-3-yl}-3-(phenylamino)-1H-pyrazole-4-carboxamide], for which the IC50 on JAK1 stood at 4 nM; against JAK2, 86 nM.

`N#CCC1(n2cc(C(N)=O)c(Nc3ccc(F)cc3)n2)CCC(Nc2ccc(C(F)(F)F)cc2)CC1` (stereo not drawn) [Example 40-73, Cis or trans 1-[1-(cyanomethyl)-4-{[4-(trifluoromethyl)phenyl]amino}cyclohexyl]-3-[(4-fluorophenyl)amino]-1H-pyrazole-4-carboxamide]: the IC50 at JAK1 was 139 nM; against JAK2, > 1500 nM.

`N#CCC1(n2cc(C(N)=O)c(Nc3ccnc(F)c3)n2)CCC(NCc2cccc(C#N)c2)CC1` (stereo not drawn) [Example 41-14, Cis or trans 1-{4-[(3-cyanobenzyl)amino]-1-(cyanomethyl)cyclohexyl}-3-[(2-fluoropyridin-4-yl)amino]-1H-pyrazole-4-carboxamide]: the IC50 at JAK1 was determined as 45 nM; against JAK2, 1420 nM.

Take `CC(C)NC(=O)N1CCC(CC#N)(n2cc(C(N)=O)c(Nc3ccc(S(=O)(=O)C(F)(F)F)cc3)n2)CC1` [Example 38-44, 4-(4-carbamoyl-3-(4-(trifluoromethylsulfonyl)phenylamino)-1H-pyrazol-1-yl)-4-(cyanomethyl)-N-isopropylpiperidine-1-carboxamide]: the half-maximal inhibitory concentration (IC50) at JAK1 was found to be 0.1 nM; against JAK2 it was 2 nM.

For the compound `CC(C)Oc1ccc(CN2CCC(CC#N)(n3cc(C(N)=O)c(Nc4ccccc4)n3)CC2)cc1` [Example 21-27, 1-{4-(cyanomethyl)-1-[4-(1-methylethoxy)benzyl]piperidin-4-yl}-3-(phenylamino)-1H-pyrazole-4-carboxamide], the half-maximal inhibitory concentration (IC50) on JAK1 is 36 nM; against JAK2 it was 809 nM.

For `Cn1cc(-c2cccc(Nc3nn(C4(CC#N)CCN(C(=O)OCC(F)(F)F)CC4)cc3C(N)=O)c2)cn1` [Example 10-5, 2,2,2-trifluoroethyl 4-(4-carbamoyl-3-(3-(1-methyl-1H-pyrazol-4-yl)phenylamino)-1H-pyrazol-1-yl)-4-(cyanomethyl)piperidine-1-carboxylate], the IC50 on JAK1 was 0.2 nM; at JAK2, 21 nM.

Take `CC(C)(C)OC(=O)N1CCC(CC#N)(n2cc(C(N)=O)c(Nc3ccc(S(=O)(=O)C(F)F)cc3)n2)CC1` [Example 9-16, tert-butyl 4-[4-carbamoyl-3-({4-[(difluoromethyl)sulfonyl]phenyl}amino)-1H-pyrazol-1-yl]-4-(cyanomethyl)piperidine-1-carboxylate]: the 50% inhibitory concentration (IC50) on JAK1 stood at 0.09 nM; against JAK2 it was 0.6 nM.

On to `N#CCC(=O)N1CCC(CC#N)(n2cc(C(N)=O)c(Nc3ccnc(F)c3)n2)CC1` [Example 34-49, 1-[1-(cyanoacetyl)-4-(cyanomethyl)piperidin-4-yl]-3-[(2-fIuoropyridin-4-yl)amino]-1H-pyrazole-4-carboxamide], for which the IC50 at JAK1 was found to be 0.2 nM; on JAK2 it was 9 nM.

Take `N#CCC1(n2cc(C(N)=O)c(Nc3ccccc3)n2)CCN(C(=O)OC2Cc3ccccc3C2)CC1` [Example 30-34, 2,3-dihydro-1H-inden-2-yl 4-[4-carbamoyl-3-(phenylamino)-1H-pyrazol-1-yl]-4-(cyanomethyl)piperidine-1-carboxylate]: the IC50 on JAK1 was found to be 3 nM; against JAK2, 83 nM.

For `CC(C)(C)OC(=O)N1CCC(CC#N)(n2cc(C(N)=O)c(Nc3ccnnc3)n2)CC1` [Example 12-6, tert-butyl 4-[4-carbamoyl-3-(pyridazin-4-ylamino)-1H-pyrazol-1-yl]-4-(cyanomethyl)piperidine-1-carboxylate], the IC50 at JAK1 was 0.4 nM; against JAK2, 15 nM.

For the compound `CC(C)Oc1cccc(N2CCC(CC#N)(n3cc(C(N)=O)c(Nc4ccc(F)cc4)n3)CC2)n1` [Example 3-15, 1-{4-(cyanomethyl)-1-[6-(1-methylethoxy)pyridin-2-yl]piperidin-4-yl}-3-[(4-fluorophenyl)amino]-1H-pyrazole-4-carboxamide], the results for the IC50 on JAK1 and on JAK2 were 191 nM and > 1500 nM, respectively.

In the case of `COC1CC(CN2CCC(CC#N)(n3cc(C(N)=O)c(Nc4ccnc(F)c4)n3)CC2)C1` (stereo not drawn) [Example 22-37, 1-{4-(cyanomethyl)-1-[(3-methoxycyclobutyl)methyl]piperidin-4-yl}-3-[(2-fluoropyridin-4-yl)amino]-1H-pyrazole-4-carboxamide], the IC50 on JAK1 is 88 nM; against JAK2, > 1500 nM.

Regarding `CC(F)(F)C(=O)N1CCC(CC#N)(n2cc(C(N)=O)c(Nc3ccnc(F)c3)n2)CC1` [Example 34-40, 1-[4-(cyanomethyl)-1-(2,2-difluoropropanoyl)piperidin-4-yl]-3 [(2-fluoropyridin-4-yl)amino]-1H-pyrazole-4-carboxamide], the IC50 amounted to 0.1 nM at JAK1 and 2 nM against JAK2.

`N#CCC1(n2cc(C(N)=O)c(Nc3ccccc3)n2)CN(C(=O)OCCN2CCCC2=O)C1` [Example 30-64, 2-(2-oxopyrrolidin-1-yl)ethyl 3-[4-carbamoyl-3-(phenylamino)-1H-pyrazol-1-yl]-3-(cyanomethyl)azetidine-1-carboxylate]: the half-inhibitory concentration (IC50) at JAK1 is 188 nM; on JAK2, 1480 nM.

Take `N#CCC1(n2cc(C(N)=O)c(Nc3ccc(F)cc3)n2)CCC(Nc2ccc(F)cc2)CC1` (stereo not drawn) [Example 40-19, Cis or trans 1-{1-(cyanomethyl)-4-[(4-fluorophenyl)amino]cyclohexyl}-3-[(4-fluorophenyl)amino]-1H-pyrazole-4-carboxamide]: the IC50 on JAK1 came to 0.3 nM; on JAK2, 10 nM.

`CCOc1ccccc1CN1CCC(CC#N)(n2cc(C(N)=O)c(Nc3ccccc3)n2)CC1` [Example 21-16, 1-[4-(cyanomethyl)-1-(2-ethoxybenzyl)piperidin-4-yl]-3-(phenylamino)-1H-pyrazole-4-carboxamide]: the IC50 on JAK1 came to 69 nM; against JAK2, 842 nM.

On to `N#CCC1(n2cc(C(N)=O)c(Nc3ccnc(F)c3)n2)CCC(Nc2cccc(Cl)c2)CC1` (stereo not drawn) [Example 40-62, Cis or trans 1-{4-[(3-chlorophenyl)amino]-1-(cyanomethyl)cyclohexyl}-3-[(2-fluoropyridin-4-yl)amino]-1H-pyrazole-4-carboxamide], for which the 50% inhibitory concentration (IC50) is 38 nM on JAK1 and 832 nM on JAK2.

`N#CCC1(n2cc(C(N)=O)c(Nc3ccnc(F)c3)n2)CCN(Cc2cc3ccccn3n2)CC1` [Example 22-34, 1-[4-(cyanomethyl)-1-(pyrazolo[1,5-a]pyridin-2-ylmethyl)piperidin-4-yl]-3-[(2-fluoropyridin-4-yl)amino]-1H-pyrazole-4-carboxamide]: the IC50 on JAK1 came to 8 nM; against JAK2, 163 nM.

Turning to `Cc1cc(N2CCC(CC#N)(n3cc(C(N)=O)c(Nc4ccc(F)cc4)n3)CC2)ccn1` [Example 3-4, 1-[4-(cyanomethyl)-1-(2-methylpyridin-4-yl)piperidin-4-yl]-3-[(4-fluorophenyl)amino]-1H-pyrazole-4-carboxamide], the IC50 at JAK1 worked out at 8 nM; at JAK2, 174 nM.
